Calls of active or inactive are those of the source. The rule behind the calls is not given here.
Key:
BV-2 [1] = test: Anti-neuroinflammatory activity in mouse BV-2 cells assessed as inhibition of LPS-induced NO production incubated for 24 hrs by microplate reader analysis; format: functional, cell-based; details: BV-2, 24 h
[2] = Cytotoxicity against mouse BV-2 cells assessed as reduction in cell viability by crystal violet staining based assay; format: toxicity
[3] = Therapeutic index, ratio of IC50 for cytotoxicty against mouse BV-2 cells assessed as reduction in cell viability by crystal violet staining based assay to IC50 for nti-neuroinflammatory activity in mouse BV-2 cells assessed as inhibition of LPS-induced NO production; format: toxicity; details: read-out: Ratio IC50
[4] = Toxicity in BALB/c mouse assessed as cognitive impairment by measuring time spent on new arm at 10 mg/kg, ip administered once daily for 3 days and measured after 45 mins by Y maze test; format: organism-based; details: in vivo, 72.75 h, time 4365 min
BV-2 [5] = test: Anti-neuroinflammatory activity in LPS-induced mouse BV-2 cells assessed as reduction in TNF-alpha mRNA expression at 1 to 10 uM by qRT-PCR analysis; format: functional, cell-based; details: dose 1-10 µM
BV-2 [6] = test: Anti-neuroinflammatory activity in LPS-induced mouse BV-2 cells assessed as reduction in IL-6 mRNA expression at 1 to 10 uM by qRT-PCR analysis; format: functional, cell-based; details: dose 1-10 µM
BV-2 [7] = test: Anti-neuroinflammatory activity in LPS-induced mouse BV-2 cells assessed as reduction in IL-1beta mRNA expression at 10 uM by qRT-PCR analysis; format: functional, cell-based
Mus musculus [8] = test: Anti-neuroinflammatory activity in naloxone precipitated morphine-induced BALB/c mouse assessed as reduction in naloxone precipitated withdrawal jumps at 0.2 microg/kg, ip administered with morphine 3 times daily for 3 days and on day 4 for 3 hrs prior to compound addition for 30 mins before naloxone addition and measured after 15 mins; format: functional, organism-based; details: dose 0.2 µg/kg, time 45.0 min
Mus musculus [9] = test: Anti-neuroinflammatory activity in morphine-induced BALB/c mouse assessed as inhibition of behavioral sensitization at 0.2 mg/kg, ip administered once daily for 7 days; format: functional, organism-based; details: time 7.0 day
Mus musculus [10] = test: Anti-neuroinflammatory activity in morphine-induced BALB/c mouse assessed as […] in locomotor activity 0.2 mg/kg, ip administered once daily for 7 days and measured after 60 mins; format: functional, organism-based; details: time 169.0 hrs
[11] = Cmax in BALB/c mouse at 10 mg/kg, po measured upto 4 hrs by mS-HPLC analysis; format: ADME, organism-based; parameters: time < 4 hrs, dose 10 mg/kg, route po; details: in vivo
[12] = Half life in BALB/c mouse at 10 mg/kg, po measured upto 4 hrs by mS-HPLC analysis; format: ADME, organism-based; details: in vivo
[13] = MRT in BALB/c mouse at 10 mg/kg, po measured upto 4 hrs by mS-HPLC analysis; format: ADME, organism-based; details: in vivo
[14] = Ratio of drug concentration in blood to plasma in BALB/c mouse at 10 mg/kg, po measured at 3 hrs; format: ADME, organism-based; details: in vivo
[15] = AUC (0 to t) in BALB/c mouse at 10 mg/kg, po measured upto 4 hrs by mS-HPLC analysis; format: ADME, organism-based; details: in vivo

SMILES	IC50 (BV-2 [1])	IC50 [2]	selectivity ratio [3]	also measured
C=C(C)[C@@H]1CCC(C)=C[C@H]1c1c(O)cc(C(C)n2ccnn2)cc1O (stereo not given in full)	35.9 µM	77.1 µM	2.1	
C=C(C)[C@@H]1CCC(C)=C[C@H]1c1c(O)cc(CCCCCCCCCCCC)cc1O		> 200 µM		
C=C(C)[C@@H]1CCC(C)=C[C@H]1c1c(OCCC)cc(CCCCC)cc1OCCC		> 200 µM		
CCCCCc1cc(O)c2c(c1)OC(C)(C)[C@@H]1CCC(C)=C[C@@H]21 [DRONABINOL]				Activity [4]: Toxic
C=CCOc1cc(CCCCC)cc(O)c1[C@@H]1C=C(C)CC[C@H]1C(=C)C	59.8 µM	71.5 µM	0.7	
C=C(C)[C@@H]1CCC(C)=C[C@H]1c1c(OCC)cc(CCCCC)cc1OCC		> 200 µM		
C=C(C)[C@@H]1CCC(C)=C[C@H]1c1c(O)cc(CC)cc1O	2.5 µM	22.6 µM	9.1	
C=C(C)[C@@H]1CCC(C)=C[C@H]1c1c(O)cc(CCCCC)cc1O [CANNABIDIOL]	12.3 µM	8.5 µM	0.7	Activity (BV-2 [5]): inactive; Activity (BV-2 [6]): inactive; Activity (BV-2 [7]): inactive; Activity (Mus musculus [8]): inactive; Activity (Mus musculus [9]): inactive; Activity (Mus musculus [10]): inactive; Cmax [11]: 98.1 ng/g; half-life [12]: 30 min; MRT [13]: 42 min; Ratio [14]: < 100%; AUCt [15]: 66.7 ng·h/g
C=C(C)[C@@H]1CCC(C)=C[C@H]1c1c(O)cc(CCC)cc1O [CANNABIDIVARIN]	5.3 µM	18.3 µM	3.5	
C=C(C)[C@@H]1CCC(C)=C[C@H]1c1c(O)cc(CCCCC)cc1OC	37.2 µM	58.2 µM	1.6	
C=C(C)[C@@H]1CCC(C)=C[C@H]1c1c(O)cc(CCCCC)cc1OCC		176 µM	1.1	

From ChEMBL document CHEMBL5360639, “Cannabidiol Analogue CIAC001 for the Treatment of Morphine-Induced Addiction by Targeting PKM2” (J Med Chem, 2023)
